Measured values reported in PubChem BioAssay (NCI).
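96-well plates; 48 h exposure; 5 concentrations. Endpoints by linear interpolation between flanking doses. Not reached: highest tested concentration assigned. Here, GI50 denotes the concentration required for 50% inhibition of growth. TGI: concentration producing complete growth inhibition.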

Key:
Assay in all cases: NCI anticancer screen, dose series, 48 h
[1] = test system: 786-0 renal
[2] = test system: A549 NSCLC
[3] = test system: ACHN renal
[4] = test system: BT-549 breast
[5] = test system: CAKI-1 renal
[6] = test system: CCRF-CEM leukemia
[7] = test system: COLO 205 colon
[8] = test system: DU-145 prostate
[9] = test system: EKVX NSCLC
[10] = test system: HCC-2998 colon
[11] = test system: HCT-116 colon
[12] = test system: HCT-15 colon
[13] = test system: HOP-62 NSCLC
[14] = test system: HOP-92 NSCLC
[15] = test system: HS 578T breast
[16] = test system: HT29 colon
[17] = test system: IGROV1 ovarian
[18] = test system: K-562 leukemia
[19] = test system: KM12 colon
[20] = test system: LOX IMVI melanoma
[21] = test system: M14 melanoma
[22] = test system: MCF7 breast
[23] = test system: MDA-MB-231 breast
[24] = test system: MDA-MB-435
[25] = test system: MOLT-4 leukemia
[26] = test system: NCI-H226 lung
[27] = test system: NCI-H23 lung
[28] = test system: NCI-H460 lung
[29] = test system: NCI-H522 lung
[30] = test system: NCI/ADR-RES ovarian
[31] = test system: OVCAR-3 ovarian
[32] = test system: OVCAR-4 ovarian
[33] = test system: OVCAR-5 ovarian
[34] = test system: OVCAR-8 ovarian
[35] = test system: PC-3 prostate
[36] = test system: RPMI-8226 leukemia
[37] = test system: RXF 393 renal
[38] = test system: SF-268 CNS
[39] = test system: SF-295 CNS
[40] = test system: SF-539 CNS
[41] = test system: SK-MEL-2 melanoma
[42] = test system: SK-MEL-28 melanoma
[43] = test system: SK-MEL-5 melanoma
[44] = test system: SK-OV-3 ovarian
[45] = test system: SN12C renal
[46] = test system: SNB-19 CNS
[47] = test system: SNB-75 CNS
[48] = test system: SW-620 colon
[49] = test system: T-47D breast
[50] = test system: TK-10 renal
[51] = test system: U251 CNS
[52] = test system: UACC-257 melanoma
[53] = test system: UACC-62 melanoma
[54] = test system: UO-31 renal

SMILES: COc1ccc2nc(C3=CN(C4OC(CO)C(O)C(O)C4O)C4C=CC=CC34)sc2c1 (stereo not drawn)
- GI50 [1]: 15.6 µM
- TGI [1]: 58.4 µM
- GI50 [2]: 28.3 µM
- TGI [2]: > 100 µM
- GI50 [3]: 19 µM
- TGI [3]: 46.1 µM
- GI50 [4]: 33.9 µM
- TGI [4]: > 100 µM
- GI50 [5]: 40.7 µM
- TGI [5]: > 100 µM
- GI50 [6]: 42.4 µM
- TGI [6]: > 100 µM
- GI50 [7]: 27.2 µM
- TGI [7]: > 100 µM
- GI50 [8]: 38.8 µM
- TGI [8]: > 100 µM
- GI50 [9]: 39.7 µM
- TGI [9]: > 100 µM
- GI50 [10]: 22.7 µM
- TGI [10]: 53.1 µM
- GI50 [11]: 22.7 µM
- TGI [11]: 81.7 µM
- GI50 [12]: 32.4 µM
- TGI [12]: > 100 µM
- GI50 [13]: 22.6 µM
- TGI [13]: 56.9 µM
- GI50 [14]: 67.4 µM
- TGI [14]: > 100 µM
- GI50 [15]: 34.4 µM
- TGI [15]: 94.4 µM
- GI50 [16]: 59.9 µM
- TGI [16]: > 100 µM
- GI50 [17]: 13.5 µM
- TGI [17]: 34.8 µM
- GI50 [18]: 28.5 µM
- TGI [18]: 87.7 µM
- GI50 [19]: 24.1 µM
- TGI [19]: 75.7 µM
- GI50 [20]: 19.4 µM
- TGI [20]: 56.6 µM
- GI50 [21]: 33 µM
- TGI [21]: 93.8 µM
- GI50 [22]: > 100 µM
- TGI [22]: > 100 µM
- GI50 [23]: 23.9 µM
- TGI [23]: 61.6 µM
- GI50 [24]: 37.1 µM
- TGI [24]: > 100 µM
- GI50 [25]: 21.9 µM
- TGI [25]: 90.8 µM
- GI50 [26]: 21.4 µM
- TGI [26]: 79.3 µM
- GI50 [27]: 33.9 µM
- TGI [27]: > 100 µM
- GI50 [28]: > 100 µM
- TGI [28]: > 100 µM
- GI50 [29]: 24 µM
- TGI [29]: 76.5 µM
- GI50 [30]: > 100 µM
- TGI [30]: > 100 µM
- GI50 [31]: 87.5 µM
- TGI [31]: > 100 µM
- GI50 [32]: > 100 µM
- TGI [32]: > 100 µM
- GI50 [33]: 26.8 µM
- TGI [33]: 83.2 µM
- GI50 [34]: 25.2 µM
- TGI [34]: 77.8 µM
- GI50 [35]: 38.9 µM
- TGI [35]: > 100 µM
- GI50 [36]: 40.3 µM
- TGI [36]: > 100 µM
- GI50 [37]: 34.6 µM
- TGI [37]: > 100 µM
- GI50 [38]: > 100 µM
- TGI [38]: > 100 µM
- GI50 [39]: 26.6 µM
- TGI [39]: 82.3 µM
- GI50 [40]: 29.3 µM
- TGI [40]: 77.7 µM
- GI50 [41]: 38.8 µM
- TGI [41]: > 100 µM
- GI50 [42]: > 100 µM
- TGI [42]: > 100 µM
- GI50 [43]: 31.5 µM
- TGI [43]: 80.7 µM
- GI50 [44]: 96 µM
- TGI [44]: > 100 µM
- GI50 [45]: 29.7 µM
- TGI [45]: 94.1 µM
- GI50 [46]: 46.8 µM
- TGI [46]: > 100 µM
- GI50 [47]: 55 µM
- TGI [47]: > 100 µM
- GI50 [48]: 41.9 µM
- TGI [48]: > 100 µM
- GI50 [49]: 45 µM
- TGI [49]: > 100 µM
- GI50 [50]: 27.3 µM
- TGI [50]: 51.5 µM
- GI50 [51]: 28.5 µM
- TGI [51]: > 100 µM
- GI50 [52]: 28 µM
- TGI [52]: 89.3 µM
- GI50 [53]: 22.2 µM
- TGI [53]: 67.6 µM
- GI50 [54]: 41.1 µM
- TGI [54]: > 100 µM
